Reference: patent US7972831B2, “Lipases from thermophilic anaerobes” (Novozymes A/S, priority 2004, dated 2011)
Counter-ions that a name gives are not always drawn.

Legend:
[1] = tested on: lipase; experiment: Effect of detergent ingredients on lipase activity; format: biochemical; conditions: 1.5 hours at 30° C., up to 10% by weight of compound
Description: The activity of the lipase was tested after incubation for 1.5 hours at 30° C. with up to 10% by weight of various compounds.

[2] = tested on: lipase of SEQ ID NO: 2; experiment: Effect of inhibitors on lipase activity; format: biochemical, Thermoanaerobacter thermohydrosulfuricus; conditions: for effect on the activity of the lipase: up to 10 mM
[3] = tested on: lipase of SEQ ID NO: 4; experiment: Effect of inhibitors on lipase activity; format: biochemical, Caldanaerobacter subterraneus subsp. tengcongensis; conditions: for effect on the activity of the lipase: up to 10 mM
[4] = tested on: lipase of SEQ ID NO: 2; experiment: Positional specificity towards monoglycerides; format: biochemical, Thermoanaerobacter thermohydrosulfuricus
[5] = Effect of pH on lipase activity; format: biochemical
[6] = Specific activity of purified lipase; format: biochemical, Thermoanaerobacter thermohydrosulfuricus; conditions: after three-step purification
Description: The lipase solution obtained after hydrophobic interaction chromatography was loaded on a hydroxilapatite column used as a second purification step. The lipase was eluted at the approximate mid-point of the sodium phosphate buffer gradient (220 to 250 mM range). The active fractions were further subjected to gel filtration column. […] The enzyme activity was present in the second major peak. The lipase was purified approximately 133.5-fold over the crude extract with a 10.2% yield. The specific activity of the purified lipase was 12.3 U/mg.

Molecule: CCCCCCCC/C=C\CCCCCCCC(=O)OCCOCC(OCCO)C1OCC(OCCO)C1OCCO (stereo not shown) [Tween-80]
- effect on activity after incubation [1]: decreased the activity

Molecule: NC(N)=O [urea]
- effect on the activity of the lipase [2]: little effect
- effect on the activity of the lipase [3]: little effect

Molecule: Triton X-100
- effect on activity after incubation [1]: decreased the activity

Molecule: O=C(O)CI [iodo-acetate]
- effect on the activity of the lipase [2]: little effect
- effect on the activity of the lipase [3]: little effect

Molecule: O=C(O)c1cc[c]([Hg][OH])cc1 [pHMB]
- effect on the activity of the lipase [2]: little effect
- effect on the activity of the lipase [3]: little effect

Molecule: OCCS [b-mercaptoethanol]
- effect on the activity of the lipase [2]: little effect
- effect on the activity of the lipase [3]: little effect

Molecule: CCCCCCCCCCCCOS(=O)(=O)[O-].[Na+] [SDS]
- effect on activity after incubation [1]: full enzyme inhibition

Molecule: monopalmitoyl glycerols
- hydrolysis of 1-positional ester bond lower in comparison with 2-positional ester bond [4]: less than 2 fold

Molecule: O=S(=O)(F)Cc1ccccc1 [PMSF]
- inactivation of the lipase ([2]; 0.1-1 mM): inactivated
- inactivation of the lipase ([3]; 0.1-1 mM): inactivated

Molecule: N=C(N)N [guanidine hydrochloride]
- effect on the activity of the lipase [2]: little effect
- effect on the activity of the lipase [3]: little effect

B1: lipase of SEQ ID NO: 2: polypeptide having lipase activity from Thermoanaerobacter thermohydrosulfuricus DSM 7021 and T. brockii subsp. brockii DSM 1457 (protein, listed as Thermoanaerobacter thermohydrosulfuricus)
chain: MQKAVEITYNGKTLRGMMHLPDDVKGKVPMVIMFHGFTGNKVESHFIFVKMSRALEKVGIGSVRFDFYGSGESDGDFSEMTFSSELEDARQILKFVKEQPTTDPERIGLLGLSMGGAIAGIVAREYKDEIKALVLWAPAFNMPELIMNESVKQYGAIMEQLGFVDIGGHKLSKDFVEDISKLNIFELSKGYDKKVLIVHGTNDEAVEYKVSDRILKEVYGDNATRVTIENADHTFKSLEWEKKAIEESVEFFKKELLKG
- activity at pH 6.5-9.0 [5]: > 80%
- specific activity of the purified lipase [6]: 12.3 U/mg

B2: lipase of SEQ ID NO: 4: polypeptide having lipase activity from Caldanaerobacter subterraneus subsp. tengcongensis DSM 15242 (protein, listed as Thermoanaerobacter tencongensis)
chain: VQKAVEFTYNRKTLRGMLHLPEGVSEKVPMVVMFHGFTGNKVESHFIFVKMSRALEKVGIGSVRFDFYGSGESDGDFSEMTFSGELEDARQILDFVKRQPTTDVERIGLLGLSMGGAIAGIIARERKEDVKALVLWAPAFNMPELIMGEGARQYGAIMESLGYVDIGGLKLDRAFVEDIAKFNIFELSRGYEGKVLIVHGTNDEAVEYRISDRILQEVYGDNAFRVTIEGADHTFKNLEWERKAIEESVKFFERELKG
- activity at pH 6.5-9.0 [5]: > 60%
